Marks after values point to notes of the source that are not given here.
Test system: ^241Am contaminated beagle dogs (inhalation)
Assay: Decorporation efficacy in beagle dogs after ^241Am nitrate inhalation (Example 2)
Assay type: in vivo, beagle dog
Conditions: for Average percent recovered activity, Feces / Average percent recovered activity, Urine: cumulative, Mean (SEM); for Average percent recovered activity, GIT / Average percent recovered activity, Kidney / Average percent recovered activity, Liver / Average percent recovered activity, Lung / Average percent recovered activity, Ovaries / Average percent recovered activity, Soft Tissue / Average percent recovered activity, Spleen / Average percent recovered activity, TBLN / Average percent recovered activity, Testes / Average percent recovered activity, Total Bone: day 14, Mean (SEM)
Protocol: The efficacy of C2E2 of Lot 050 obtained using Method 2 was evaluated in male and female beagle dogs administered a nitrate complex of americium-241 (^241Am) via inhalation (INH). C2E2 was administered 24 hours post ^241Am inhalation exposure. Animals were monitored and urine and feces were collected daily. Cages were rinsed daily. Animals were euthanized 14 days later and tissues collected. Tissues were processed and analyzed for ^241Am content. The in-life measurements and biokinetics of ^241Am with and without chelation treatment are described.
Sixteen (16) male and female beagle dogs underwent a 14-day quarantine period for acclimation. Once released from quarantine, animals were weighed and that weight was used to randomize the animals into the study. Dogs were 13.3±2.2 months of age at study initiation and weighed 8.9±1.2 kg. After randomization, the animals were acclimated to metabolism cages for approximately 24 hours prior to radionuclide inhalation administration of ^241Am(III)-nitrate at time 0 followed by oral gavage administration of vehicle (water) or 100, 300, or 500 mg/kg C2E2 at 24 hours post inhalation exposure. Animals were placed in metabolism cages for the duration of the in-life phase.
Animals were euthanized 14 days after administration of ^241Am. A full necropsy was conducted and liver, spleen, kidneys, lungs and trachea, muscle samples (right and left quadriceps), GI tract (stomach and esophagus, upper and lower intestine), gonads, two femurs, lumbar vertebrae (L1-L4), paws and tail, TBLN, and all soft tissue remains were collected. The brain and eyes were removed from the skull and combined with the soft tissue remains. The skeleton was defleshed and all bone samples collected for analysis. Pelt was not analyzed for ^241Am content.
Urine, feces, cage rinse, and all tissue samples were processed by heat and chemical treatments. The samples were analyzed by gamma pulse height analysis.
For the study, stock C2E2 (L/N: 020WJL050) was obtained as a white powder and stored at 2-8° C. The C2E2 was weighed out and dissolved in vehicle, DI water. Solutions were prepared at 20 mg/mL, 60 mg/mL, and 100 mg/mL on each day of dosing. The formulation was protected from light by wrapping the container in aluminum foil. Metal-free spatulas, glassware, and stir bars were used when weighing and preparing the formulation.
On the morning of exposure, animals were fasted and sedated with acepromazine (0.05 mg/kg) by intramuscular administration. Dogs were anesthetized with isoflurane (5%). A latex mask was placed over the muzzle to minimize external contamination of the dog. The latex-covered muzzle was placed into the exposure plenum where a mixture of oxygen and isoflurane were continuously flowing and being monitored. Oxygen in the box was maintained at 45-55% and isoflurane was delivered as needed (2-3% in oxygen) to ensure the dog remained anesthetized. Aerosols were generated from the ^241Am nitrate solution using a Hospitec nebulizer operated at 10 psi. The aerosol was transited through a tube furnace operating at 70-80° C. to dry the aerosol and minimize the amount of acid present.
The exhaust flow was 12.2 L/min. Aerosols were collected on Pallflex® FiberFilm™ filters at a flow rate of 0.49 L/min for filter samples and 1.95 L/min for cascade impactor samples. Filters were placed in 20-mL vials with 5 mL of 7N HNO3 and vortexed for 30 seconds. The filters were removed and placed singly into another 20-mL vial. A […] aliquot was removed from the original vial. The filter and the aliquot were individually analyzed for ^241Am and the amount collected on the filter was determined. The aerosol concentration was determined to be 1155±223 nCi/L. The particle size was determined to be 0.63 μm AMAD (activity median aerodynamic diameter) with a 1.72 geometric standard deviation (GSD). Animals were exposed for 8 minutes. […]

[1] = C2E2 100 mg/kg (low dose) vs untreated control, dogs, 100 mg/kg
[2] = C2E2 100 mg/kg oral 24 h after ^241Am inhalation, dogs
[3] = C2E2 300 mg/kg (mid dose) vs untreated control, dogs, 300 mg/kg
[4] = C2E2 300 mg/kg oral 24 h after ^241Am inhalation, dogs
[5] = C2E2 500 mg/kg (high dose) vs untreated control, dogs, 500 mg/kg
[6] = C2E2 500 mg/kg oral 24 h after ^241Am inhalation, dogs
[7] = treated groups vs controls, dose not specified

## CCOC(=O)CN(CCN(CCN(CC(=O)O)CC(=O)OCC)CC(=O)O)CC(=O)O [C2E2, 6,9-bis(carboxymethyl)-3-(2-ethoxy-2-oxoethyl)-11-oxo-12-oxa-3,6,9-triazatetradecan-1-oic acid]
[1]
  Percent ^241Am content reduction in tissue, GIT: 43.9%
  Percent ^241Am content reduction in tissue, Gonads: 51.1%
  Percent ^241Am content reduction in tissue, Kidneys: 52.4%
  Percent ^241Am content reduction in tissue, Liver: 29.7%
  Percent ^241Am content reduction in tissue, Lungs: 30.6%
  Percent ^241Am content reduction in tissue, Soft Tissue: 47.1%
  Percent ^241Am content reduction in tissue, Spleen: 47.7%
  Percent ^241Am content reduction in tissue, TBLN: 22.9%
  Percent ^241Am content reduction in tissue, Total Bone: 41.6%
[2]
  Average percent recovered activity, Feces: 31.78 (3.21) %
  Average percent recovered activity, Urine: 22.35 (0.56)** %
C2E2 100 mg/kg, dogs
  Average percent recovered activity, GIT: 0.53 (0.05)** %
  Average percent recovered activity, Kidney: 0.37 (0.03)** %
  Average percent recovered activity, Liver: 19.13 (1.34)** %
  Average percent recovered activity, Lung: 9.69 (1.77)* %
  Average percent recovered activity, Ovaries: 0.001 (0.000) %
  Average percent recovered activity, Soft Tissue: 1.08 (0.07)** %
  Average percent recovered activity, Spleen: 0.16 (0.03) %
  Average percent recovered activity, TBLN: 0.028 (0.002) %
  Average percent recovered activity, Testes: 0.003 (0.001)* %
  Average percent recovered activity, Total Bone: 14.90 (1.97)** %
[3]
  Percent ^241Am content reduction in tissue, GIT: 58.2%
  Percent ^241Am content reduction in tissue, Gonads: 66.3%
  Percent ^241Am content reduction in tissue, Kidneys: 63.0%
  Percent ^241Am content reduction in tissue, Liver: 51.0%
  Percent ^241Am content reduction in tissue, Lungs: 48.2%
  Percent ^241Am content reduction in tissue, Soft Tissue: 51.8%
  Percent ^241Am content reduction in tissue, Spleen: 74.8%
  Percent ^241Am content reduction in tissue, TBLN: 31.7%
  Percent ^241Am content reduction in tissue, Total Bone: 45.5%
  Percent change in excretion, Feces: 155%
[4]
  Average percent recovered activity, Feces: 41.85 (4.43)** %
  Average percent recovered activity, Urine: 21.93 (2.26)** %
C2E2 300 mg/kg, dogs
  Average percent recovered activity, GIT: 0.39 (0.06)** %
  Average percent recovered activity, Kidney: 0.28 (0.04)** %
  Average percent recovered activity, Liver: 13.35 (1.51)** %
  Average percent recovered activity, Lung: 7.23 (0.89)** %
  Average percent recovered activity, Ovaries: 0.001 (0.001)* %
  Average percent recovered activity, Soft Tissue: 0.99 (0.12)** %
  Average percent recovered activity, Spleen: 0.07 (0.02)** %
  Average percent recovered activity, TBLN: 0.024 (0.004) %
  Average percent recovered activity, Testes: 0.003 (0.001)* %
  Average percent recovered activity, Total Bone: 13.93 (1.30)** %
[5]
  Percent ^241Am content reduction in tissue, GIT: 54.1%
  Percent ^241Am content reduction in tissue, Gonads: 55.3%
  Percent ^241Am content reduction in tissue, Kidneys: 61.8%
  Percent ^241Am content reduction in tissue, Liver: 71.7%
  Percent ^241Am content reduction in tissue, Lungs: 63.5%
  Percent ^241Am content reduction in tissue, Soft Tissue: 50.7%
  Percent ^241Am content reduction in tissue, Spleen: 69.0%
  Percent ^241Am content reduction in tissue, TBLN: 35.0%
  Percent ^241Am content reduction in tissue, Total Bone: 48.3%
  Percent change in excretion, Urine: 1310%
[6]
  Average percent recovered activity, Feces: 36.53 (1.18)* %
  Average percent recovered activity, Urine: 35.63 (0.70)** %
C2E2 500 mg/kg, dogs
  Average percent recovered activity, GIT: 0.44 (0.05)** %
  Average percent recovered activity, Kidney: 0.29 (0.01)** %
  Average percent recovered activity, Liver: 7.71 (0.35)** %
  Average percent recovered activity, Lung: 5.10 (0.31)** %
  Average percent recovered activity, Ovaries: 0.001 (0.000) %
  Average percent recovered activity, Soft Tissue: 1.01 (0.02)** %
  Average percent recovered activity, Spleen: 0.09 (0.02)* %
  Average percent recovered activity, TBLN: 0.023 (0.003) %
  Average percent recovered activity, Testes: 0.003 (0.001)* %
  Average percent recovered activity, Total Bone: 13.20 (0.86)** %
dogs, single oral 100, 300, 500 mg/kg, one 500 mg/kg animal (4004) had foamy emesis
  In-life observations: no unusual or adverse effects
[7]
  Reduction of ^241Am content, TBLN: About 50%
  Reduction of ^241Am content, total bone content: ~40%

From patent publication US9546129B2, “DTPA prodrugs, compositions thereof, and methods of using the same” (priority 2012, dated 2017)
